# Source: paper PMC10518421, “Zebrafish as model system for the biological characterization of CK1 inhibitors” (Frontiers in Pharmacology, 2023)
# Entries after “also recorded” stand apart in the source; their conditions may differ. Read-outs that look alike come from different tables or passages of the source.
# Tests used:
# CK1δ [1] = test system: CK1δ; design: method as in Bischof et al., 2012; Bibian et al., 2013; settings: ref Bischof et al., 2012; Bibian et al., 2013; cited from earlier work
# human PKCα = test system: human PKCα; design: method as in Qiao et al., 2021; settings: ref Qiao et al., 2021; cited from earlier work
# zebrafish PKCα = test system: zebrafish PKCα; design: method as in Qiao et al., 2021; settings: ref Qiao et al., 2021; cited from earlier work
# csnk1da (CK1δA) = assay: morpholino knockdown in zebrafish embryos, phenotype; format: in vivo, zebrafish (D. rerio); settings: 400 µM injected, 72 hpf
# Text: The TüAB wildtype strain was used for all experiments. […] DMSO served as solvent control. […] Embryos were immobilized in 2.5% methylcellulose.
# GST-humCK1δ^TV1 [2] = target: T1, GST-humCK1δ^TV1 (Homo sapiens, UniProt P48730); assay: in vitro kinase assay, α-casein phosphorylation with [γ-32P]-ATP, standard conditions; format: biochemical
# T1 construct: made in house; host or cells: E. coli Rosetta 2 (DE3)
# Protocol: (§1) Each in vitro kinase reaction was performed in a total volume of 15 µL containing 25 mM Tris-HCl (pH 7.0), 10 mM MgCl2, 100 µM EDTA, 2.8 µM of the substrate α-casein and 0.4 pmol [γ-^32P]-ATP at 30°C. […] Reactions were stopped by adding 3 µL of 5x SDS loading buffer and incubating at 95°C for 5 min. Proteins were separated by SDS-PAGE and stained with Coomassie Brilliant Blue R250 (Waldeck GmbH & Co. KG, Muenster, Germany). Autoradiography visualized the incorporation of radioactively labelled γ-phosphate into the proteins. A quantitative analysis of the radioactive signal was performed by excising the proteins from dried gels and measuring phosphate incorporation via Cherenkov counting (Beckmann Scintillation Counter). For the determination of the initial velocity region, a linear regression was performed. Thereby, the number of included data-points was decreased stepwise, and the point of time with the highest maximum coefficient of determination (R ^2) was chosen as the kinase-specific standard reaction time. For determination of the maximal velocity (Vmax) and Michaelis constant (Km) of ATP, various ATP concentrations in a range from 0.5 to 250 µM were tested. Raw data was used for the calculation of enzyme velocity (V) in [pmol/min]. Then, V was plotted over substrate (ATP) concentration and fitted to the Michaelis-Menten model via GraphPad Prism 8 (GraphPad Software, La Jolla, CA, United States). According to the Michaelis-Menten curve, Km, which is the concentration of the substrate, that is needed to obtain half Vmax, was calculated. For determination of IC50 values, the scintillation data measured in cpm was transformed to pmol of transferred phosphate. The data was then transformed logarithmically (X = log(X)), normalized to DMSO (100%) and zero (0%) before fitting to sigmoidal dose-response curves with variable slope with nonlinear regression using GraphPad Prism 7.
# (§2) In compliance with the established standard conditions the kinase assays were performed in the presence of 20 µM of the respective inhibitor (Figure 7).
# (§3) Next, in vitro kinase assays were performed in absence and presence of the respective SMI at different concentrations (ranging from 13 to 26667 nM). The kinase activity of the inhibitor-treated samples was normalized to the DMSO-control and plotted against the inhibitor concentration (Figure 10).
# His-DrCK1δA = target: T2, His-DrCK1δA (Danio rerio, UniProt Q7T2E3); assay: as above; format: biochemical, zebrafish (Danio rerio)
# T2 construct: made in house; host or cells: E. coli Rosetta 2 (DE3)
# T2 sequence (Q7T2E3 1-403): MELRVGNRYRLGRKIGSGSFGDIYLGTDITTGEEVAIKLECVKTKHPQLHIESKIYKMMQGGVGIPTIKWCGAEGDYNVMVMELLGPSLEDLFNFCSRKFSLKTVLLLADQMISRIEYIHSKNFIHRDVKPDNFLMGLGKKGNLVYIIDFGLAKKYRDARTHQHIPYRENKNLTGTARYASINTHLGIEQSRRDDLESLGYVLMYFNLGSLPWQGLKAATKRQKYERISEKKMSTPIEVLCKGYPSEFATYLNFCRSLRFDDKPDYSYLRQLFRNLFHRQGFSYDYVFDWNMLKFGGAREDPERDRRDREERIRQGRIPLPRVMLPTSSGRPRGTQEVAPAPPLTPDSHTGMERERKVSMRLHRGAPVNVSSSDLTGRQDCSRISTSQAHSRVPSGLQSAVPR
# Protocol: as §1, §2, §3
# His-DrCK1δB = target: T3, His-DrCK1δB (Danio rerio, UniProt Q6P3K7); assay: as above; format: biochemical, zebrafish (Danio rerio)
# T3 construct: made in house; host or cells: E. coli Rosetta 2 (DE3)
# T3 sequence (Q6P3K7 1-409): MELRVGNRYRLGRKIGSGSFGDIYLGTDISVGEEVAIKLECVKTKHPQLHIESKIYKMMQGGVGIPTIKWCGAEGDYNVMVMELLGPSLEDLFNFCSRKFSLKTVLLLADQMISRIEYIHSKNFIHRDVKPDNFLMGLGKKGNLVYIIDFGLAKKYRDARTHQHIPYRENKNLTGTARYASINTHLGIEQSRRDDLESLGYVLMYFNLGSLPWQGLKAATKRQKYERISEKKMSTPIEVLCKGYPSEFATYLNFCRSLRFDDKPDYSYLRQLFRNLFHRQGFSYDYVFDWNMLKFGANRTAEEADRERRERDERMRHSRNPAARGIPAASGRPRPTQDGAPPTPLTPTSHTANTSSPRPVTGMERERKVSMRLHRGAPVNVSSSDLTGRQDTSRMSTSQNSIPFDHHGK
# Protocol: as §1, §2, §3
# GST-CK1ε = target: T4, GST-CK1ε (Homo sapiens, UniProt P49674); assay: as above; format: biochemical
# T4 construct: made in house; host or cells: E. coli Rosetta 2 (DE3)
# Protocol: as §1, §2
# His-DrCK1ε = assay: as above; format: biochemical, zebrafish (Danio rerio)
# Protocol: as §1, §2
# CK1ε = CK1ε (Homo sapiens, UniProt P49674); assay: initial IC50 determination in in vitro kinase assays, prior to standardization; format: biochemical
# Protocol: (§4) The SMIs used in this study (summarized in Supplementary Table S2) were selected based on their inhibitory capacity toward CK1δ in vitro, whereby a broad range of inhibitors with varying efficiency were included. The determination of IC50-values was conducted prior to the standardization workflow establishment. Zebrafish embryos treated with 20 µM of the respective compound were phenotypically analyzed.
# (§5) Supplementary Table 6: List of the inhibitors that were selected for the in vivo screening of zebrafish embryonic development. The compounds were selected based on their ability to inhibit CK1δ in in vitro kinase assays. The initial IC50-values were determined prior to the establishment of the standardized in vitro kinase assay protocol. The Supplementary Table summarizes, whether the zebrafish embryos presented an abnormal phenotype upon inhibitor treatment. The inhibitors were added to the zebrafish medium in a concentration of 20 µM.
# zebrafish embryos = settings: for phenotype of treated zebrafish embryos: 24 to 72 hpf (48 h)
# Protocol: The TüAB wildtype strain was used for all experiments. […] Zebrafish embryos were dechorionated at 24 h post fertilization (hpf) and treated with the respective concentration of inhibitor, dissolved in DMSO (Sigma-Aldrich, Stadt, Land) and diluted in E3 medium (5 mM NaCl, 0.17 mM KCl, 0.33 mM CaCl2, 0.33 mM MgSO4, 0.6 µM Methylene Blue dissolved in water). DMSO served as solvent control. Embryos were treated from 24 hpf until 72 hpf, the compound solution was renewed daily. Pictures and movies were recorded at 48 and 72 hpf. […] Pictures were taken on an Olympus stereo microscope SZX16 and movies were recorded on an inverse Leica stereo microscope DM IL LED Fluo equipped with a FLEXACAM C1.
# Embryos were dechorionated at 24 hpf and treated with 20 µM of the respective inhibitor (Figure 6A).
# CK1δ [3] = settings: prior to standardization, ref Liu et al., 2019; cited from earlier work
# GST-humCK1δ^TV1 [4] = target: T1, GST-humCK1δ^TV1; design: method as in Roth et al., 2021; settings: previously established, ref Roth et al., 2021; read-out: Km(ATP); cited from earlier work
# M28FCK1δ (rat) = M28FCK1δ (rat) (Rattus norvegicus, UniProt Q06486, M82F); assay: initial IC50 determination in in vitro kinase assays, prior to standardization; format: biochemical
# CK1δ (rat) = CK1δ (rat) (Rattus norvegicus, UniProt Q06486); assay: as above; format: biochemical; settings: not published
# Protocol: as §4, §5
# CK1δ (TV1) = CK1δ (TV1) (Homo sapiens, UniProt P48730); assay: as above; format: biochemical; settings: not published
# Protocol: as §4, §5
# CK1δ (TV2) = target: T5, CK1δ (TV2) (Homo sapiens, UniProt P48730); assay: as above; format: biochemical; settings: not published
# T5 sequence (P48730 1-409 isoform P48730-2): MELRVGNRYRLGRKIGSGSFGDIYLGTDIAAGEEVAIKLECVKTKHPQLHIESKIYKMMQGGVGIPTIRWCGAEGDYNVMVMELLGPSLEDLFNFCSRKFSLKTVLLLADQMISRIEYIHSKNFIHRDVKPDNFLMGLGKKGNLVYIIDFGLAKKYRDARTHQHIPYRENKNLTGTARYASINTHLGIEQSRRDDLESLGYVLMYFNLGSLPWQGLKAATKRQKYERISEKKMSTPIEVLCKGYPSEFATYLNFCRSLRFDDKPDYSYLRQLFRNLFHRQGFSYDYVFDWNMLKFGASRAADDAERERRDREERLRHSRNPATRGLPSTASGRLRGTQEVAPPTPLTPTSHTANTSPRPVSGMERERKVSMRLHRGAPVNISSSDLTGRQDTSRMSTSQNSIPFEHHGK
# Protocol: as §4, §5
# [5] = 20 µM inhibitor, normalized to DMSO control
# [6] = inhibitor 13 to 26667 nM, ATP at Km, normalized to DMSO
# [7] = resulting from IC50 (Cheng-Prusoff, ATP at Km)
# [8] = Michaelis-Menten, ATP 0.5-250 µM
# [9] = not published, read-out: IC50 values wtCK1ε
# Chain of CK1ε (P49674 whole entry): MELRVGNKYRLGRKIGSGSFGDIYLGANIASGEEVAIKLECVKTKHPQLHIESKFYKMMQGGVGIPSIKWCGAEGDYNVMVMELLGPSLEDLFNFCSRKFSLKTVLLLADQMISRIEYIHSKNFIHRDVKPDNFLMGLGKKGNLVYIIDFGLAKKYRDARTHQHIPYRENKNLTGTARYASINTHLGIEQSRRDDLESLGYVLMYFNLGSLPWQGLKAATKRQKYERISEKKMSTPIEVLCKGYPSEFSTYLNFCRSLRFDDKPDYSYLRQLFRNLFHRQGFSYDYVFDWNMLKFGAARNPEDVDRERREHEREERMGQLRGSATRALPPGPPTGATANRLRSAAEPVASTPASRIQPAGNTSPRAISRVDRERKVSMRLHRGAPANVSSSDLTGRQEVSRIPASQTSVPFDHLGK
# T1 sequence (P48730 whole entry): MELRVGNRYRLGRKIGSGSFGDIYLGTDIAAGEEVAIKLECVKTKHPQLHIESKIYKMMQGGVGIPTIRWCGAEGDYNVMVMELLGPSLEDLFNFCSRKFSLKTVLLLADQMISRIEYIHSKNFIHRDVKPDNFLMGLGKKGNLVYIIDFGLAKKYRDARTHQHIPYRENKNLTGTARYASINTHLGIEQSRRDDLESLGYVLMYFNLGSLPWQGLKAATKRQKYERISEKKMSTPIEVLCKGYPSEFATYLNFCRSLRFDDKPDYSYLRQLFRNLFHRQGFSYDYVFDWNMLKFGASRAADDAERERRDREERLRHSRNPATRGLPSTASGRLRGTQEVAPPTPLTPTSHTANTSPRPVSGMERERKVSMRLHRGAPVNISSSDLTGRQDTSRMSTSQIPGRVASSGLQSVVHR
# T4 sequence (P49674 whole entry): as the sequence (P49674 whole entry) above
# Chain of M28FCK1δ (rat) (Q06486 whole entry M82F): as the sequence (P48730 whole entry) above, with M82F, I381V counted along it
# Chain of CK1δ (rat) (Q06486 whole entry): as the sequence (P48730 whole entry) above, with I381V counted along it
# Chain of CK1δ (TV1) (P48730 whole entry): as the sequence (P48730 whole entry) above
molecule,measurement,setting,value
O=C(Nc1nc2ccc(C(F)(F)F)cc2[nH]1)c1csc(NC(=O)c2ccccc2OC(F)(F)F)n1 [Bischof-5],50% inhibitory concentration (IC50) values,CK1δ [1],double-digit nanomolar range
O=S(=O)(NCCNC/C=C/c1ccc(Br)cc1)c1cccc2cnccc12 [H89],IC50,human PKCα,31200 nM
same,IC50,zebrafish PKCα,49800 nM
"csnk1da: morpholino-modified antisense oligonucleotide targeting the translational start site of csnk1da, 5′-TCGGTTTCCTACTCTCAATTCCATG-3′ (all phosphorodiamidate morpholino (PMO))",phenotype of morpholino injected embryos,csnk1da (CK1δA),reduced heart function resulting in blood congestion; also recorded: cardiac malfunction
Fc1cccc(-n2cnc3c(NCc4nc5c(F)c(F)ccc5[nH]4)nc(N4CCOCC4)nc32)c1 [SR-3029],50% inhibitory concentration (IC50) values,CK1δ [1],double-digit nanomolar range
O=C(CSc1nccc(=O)n1Cc1ccc(C(F)(F)F)cc1)Nc1nc2ccc(C(F)(F)F)cc2s1 [G2-2],mean residual kinase activity ± SD,GST-humCK1δ^TV1 [2]; [5],8.4 ± 1.1%
same,IC50,GST-humCK1δ^TV1 [2]; [6],503 nM
same,Ki,GST-humCK1δ^TV1 [2]; [7],251 nM
same,mean residual kinase activity ± SD,His-DrCK1δA; [5],12.1 ± 3.9%
same,IC50,His-DrCK1δA; [6],345 nM
same,Ki,His-DrCK1δA; [7],173 nM
same,mean residual kinase activity ± SD,His-DrCK1δB; [5],16.1 ± 9.5%
same,IC50,His-DrCK1δB; [6],270 nM
same,Ki,His-DrCK1δB; [7],135 nM
same,mean residual kinase activity ± SD,GST-CK1ε; [5],11.9 ± 2.0%
same,mean residual kinase activity ± SD,His-DrCK1ε; [5],10.5 ± 3.0%
same,IC50,"CK1ε; marked * not published, read-out: IC50 values CK1ε",926 nM
same,phenotype of treated zebrafish embryos,zebrafish embryos; 5 µM,"cardiac phenotype, with bradycardia and blood congestion"
same,phenotype of treated zebrafish embryos,zebrafish embryos; 10 µM,did not pump blood; also recorded: reduced heart function; also recorded: blood congestion and pericardial edema
same,Phenotypic changes (with severity) after treatment of zebrafish embryos with 20 µM inhibitor,"zebrafish embryos; 20 µM in medium, from 24 hpf",Yes (severe)
same,phenotype of treated zebrafish embryos,zebrafish embryos; 20 µM,"strong cardiac phenotype, with blood congestion, a strong bradycardia and partially total loss of heart beat; also recorded: severe effects on the embryonic development, with strong bradycardia and blood congestion; also recorded: blood congestions; also recorded: pericardial edema"
same,phenotype of treated zebrafish embryos,zebrafish embryos; 40 µM,"dead and highly toxic, and all treated embryos were dead after 48 h of treatment"
same,concentration that induced necrosis,"zebrafish embryos; 48 h of incubation, doses 5, 10, 20 and 40 µM",40 µM
same,lethality to embryos,zebrafish embryos; at concentrations of 20 and 40 μM,lethal
same,IC50,CK1δ [3],120 nM
Nc1ncnc2c1ncn2[C@@H]1O[C@H](COP(=O)(O)OP(=O)(O)OP(=O)(O)O)[C@@H](O)[C@H]1O [ATP],Km,His-DrCK1δA; [8],12 µM
same,Km,His-DrCK1δB; [8],5.31 µM
same,Km,GST-CK1ε; [8],15.4 µM
same,Km,His-DrCK1ε; [8],14.5 µM
same,Km,GST-humCK1δ^TV1 [4],6 µM
"COc1cc(Cn2c(SCC(=O)Nc3nc4ccc(C(F)(F)F)cc4s3)nc3c(c2=O)SCC3)cc(OC)c1 [G1-4, 2-((3-(3,5-Dimethoxybenzyl)-4-oxo-3,4,6,7-tetrahydrothieno[3,2-d]pyrimidin-2-yl)thio)-N-(6-(trifluormethyl)benzo [d]thiazol-2-yl)acetamid]",IC50,"M28FCK1δ (rat); prior to standardization, not published, read-out: IC50 values M28FCK1δ (rat)",160 nM
same,IC50,CK1δ (rat),380 nM
same,IC50,CK1ε; [9],3200 nM
same,Phenotypic changes,"zebrafish embryos; zebrafish, in vivo",None observed
same,Phenotypic changes (with severity) after treatment of zebrafish embryos with 20 µM inhibitor,"zebrafish embryos; zebrafish, in vivo",No
"CC(C)n1c(SCC(=O)Nc2nc3ccc(C(F)(F)F)cc3s2)nc2c(c1=O)SCC2 [G1-5, 2-((3-Isopropyl-4-oxo-3,4,6,7-tetrahydrothieno[3,2-d]pyrimidin-2-yl)thio)-N-(6-(trifluormethyl)benzo [d]thiazol-2-yl)acetamid]",IC50,M28FCK1δ (rat),120 nM
same,IC50,CK1δ (TV1),380 nM
same,IC50,CK1δ (TV2),510 nM
same,IC50,CK1δ (rat),160 nM
same,IC50,CK1ε; [9],780 nM
same,Phenotypic changes (with severity) after treatment of zebrafish embryos with 20 µM inhibitor,"zebrafish embryos; 20 µM in medium, from 24 hpf",Yes (mild)
same,phenotype of treated zebrafish embryos,zebrafish embryos; 20 µM,weak effect on heart development and function with a mild bradycardia and reduced heart rate; also recorded: a curved tail
